Patent US20090304692A1, “TRIAZINE COMPOUNDS AS PI3 KINASE AND MTOR INHIBITORS” (Wyeth, priority 2008, published 2009)
pIC50: −log10 of the molar value. Values joined by “and” are separate entries in the source; they are usually repeats but may differ in a detail not shown here. Identical values can stand only once. Like-named read-outs stand apart in the source and are kept apart here.

Assays:
Human mTOR (FLAG-TOR) = Human mTOR (FLAG-TOR) (Homo sapiens, UniProt P42345); assay: mTOR kinase assay (DELFIA format, purified enzyme); type: biochemical; conditions: read-out: IC50 mTOR
[1] = tested on: human breast MDA-MB-361 tumor cell line; assay: In vitro cell culture growth assay (MTS), MDA-MB-361; type: cell-based; conditions: Homo sapiens, MTS cell growth assay, three days after drug treatment, read-out: IC50 MDA-MB-361
[2] = tested on: human prostate PC3-mm2 tumor cell line; assay: In vitro cell culture growth assay (MTS), PC3-mm2; type: cell-based; conditions: Homo sapiens, PC3MM2, 72 h, MTS cell growth assay, three days after drug treatment, read-out: IC50 PC3-mm2
PI3K-α = PI3K-α (Homo sapiens, UniProt P42336); assay: PI3K-alpha fluorescence polarization assay; conditions: read-out: IC50 PI3Kα
PI3K-γ = PI3K-γ (Homo sapiens, UniProt P48736); assay: PI3K-gamma fluorescence polarization assay; conditions: read-out: IC50 PI3Kγ
[3] = MDA-MB-361, 72 h, MDA-MB-361 cells

Chain of PI3K-γ (P48736 whole entry, species assumed): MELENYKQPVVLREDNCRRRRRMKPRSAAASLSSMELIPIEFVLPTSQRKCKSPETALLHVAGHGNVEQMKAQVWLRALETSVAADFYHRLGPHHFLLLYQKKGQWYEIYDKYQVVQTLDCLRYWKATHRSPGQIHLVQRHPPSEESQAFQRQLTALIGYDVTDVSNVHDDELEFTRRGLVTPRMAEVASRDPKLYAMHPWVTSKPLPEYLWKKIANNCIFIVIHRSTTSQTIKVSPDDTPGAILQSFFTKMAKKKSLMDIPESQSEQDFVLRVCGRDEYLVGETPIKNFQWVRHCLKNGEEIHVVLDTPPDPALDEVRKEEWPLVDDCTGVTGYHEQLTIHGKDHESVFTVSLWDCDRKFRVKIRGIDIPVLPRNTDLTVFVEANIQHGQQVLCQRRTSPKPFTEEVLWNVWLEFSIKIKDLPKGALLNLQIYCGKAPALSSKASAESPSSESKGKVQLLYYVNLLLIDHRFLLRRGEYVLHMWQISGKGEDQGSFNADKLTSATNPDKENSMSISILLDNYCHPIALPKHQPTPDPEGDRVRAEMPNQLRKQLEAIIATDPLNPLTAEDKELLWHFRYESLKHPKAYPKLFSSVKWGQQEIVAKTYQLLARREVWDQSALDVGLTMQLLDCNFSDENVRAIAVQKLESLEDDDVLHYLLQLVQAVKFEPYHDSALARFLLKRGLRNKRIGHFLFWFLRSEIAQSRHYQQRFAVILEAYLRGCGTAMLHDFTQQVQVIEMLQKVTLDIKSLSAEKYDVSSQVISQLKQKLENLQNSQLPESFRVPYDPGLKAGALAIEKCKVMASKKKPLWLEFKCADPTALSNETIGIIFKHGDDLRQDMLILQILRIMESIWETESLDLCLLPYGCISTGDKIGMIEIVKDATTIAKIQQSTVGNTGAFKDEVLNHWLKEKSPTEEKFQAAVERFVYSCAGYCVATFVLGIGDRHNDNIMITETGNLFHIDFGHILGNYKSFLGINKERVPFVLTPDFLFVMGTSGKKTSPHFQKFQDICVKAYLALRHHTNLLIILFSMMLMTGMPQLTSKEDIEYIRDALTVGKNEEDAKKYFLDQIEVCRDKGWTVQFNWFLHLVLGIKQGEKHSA
Chain of Human mTOR (FLAG-TOR) (P42345 1360-2549 limits assumed): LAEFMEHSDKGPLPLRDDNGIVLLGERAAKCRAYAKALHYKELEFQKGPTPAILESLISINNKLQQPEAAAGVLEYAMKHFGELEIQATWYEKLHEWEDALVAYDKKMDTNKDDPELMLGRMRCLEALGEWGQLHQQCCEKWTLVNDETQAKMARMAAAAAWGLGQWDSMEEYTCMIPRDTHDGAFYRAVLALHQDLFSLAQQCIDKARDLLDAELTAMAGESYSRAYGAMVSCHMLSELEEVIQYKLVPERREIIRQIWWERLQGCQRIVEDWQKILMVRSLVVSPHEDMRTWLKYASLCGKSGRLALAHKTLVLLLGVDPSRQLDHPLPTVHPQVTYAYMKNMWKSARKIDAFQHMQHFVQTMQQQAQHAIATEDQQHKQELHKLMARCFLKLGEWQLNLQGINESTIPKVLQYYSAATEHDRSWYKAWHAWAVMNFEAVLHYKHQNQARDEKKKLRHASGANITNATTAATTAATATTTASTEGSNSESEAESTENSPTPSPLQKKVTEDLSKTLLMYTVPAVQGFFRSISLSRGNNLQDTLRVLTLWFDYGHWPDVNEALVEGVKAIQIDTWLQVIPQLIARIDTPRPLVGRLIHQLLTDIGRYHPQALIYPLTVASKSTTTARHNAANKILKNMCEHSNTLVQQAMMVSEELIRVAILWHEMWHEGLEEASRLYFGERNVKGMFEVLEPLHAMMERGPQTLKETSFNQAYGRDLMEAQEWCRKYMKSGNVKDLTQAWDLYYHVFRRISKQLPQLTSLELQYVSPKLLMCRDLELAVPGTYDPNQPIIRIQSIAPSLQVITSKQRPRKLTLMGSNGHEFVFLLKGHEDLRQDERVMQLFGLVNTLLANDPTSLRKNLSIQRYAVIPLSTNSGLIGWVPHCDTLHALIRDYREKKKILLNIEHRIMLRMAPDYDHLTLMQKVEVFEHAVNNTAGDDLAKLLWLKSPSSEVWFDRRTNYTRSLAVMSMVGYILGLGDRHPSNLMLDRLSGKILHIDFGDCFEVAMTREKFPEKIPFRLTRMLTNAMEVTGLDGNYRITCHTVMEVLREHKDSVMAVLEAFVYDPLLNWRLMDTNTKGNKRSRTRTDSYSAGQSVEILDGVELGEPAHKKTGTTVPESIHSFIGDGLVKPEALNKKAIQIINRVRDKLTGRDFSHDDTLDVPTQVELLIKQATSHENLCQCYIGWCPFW
Chain of PI3K-α (P42336 whole entry, species assumed): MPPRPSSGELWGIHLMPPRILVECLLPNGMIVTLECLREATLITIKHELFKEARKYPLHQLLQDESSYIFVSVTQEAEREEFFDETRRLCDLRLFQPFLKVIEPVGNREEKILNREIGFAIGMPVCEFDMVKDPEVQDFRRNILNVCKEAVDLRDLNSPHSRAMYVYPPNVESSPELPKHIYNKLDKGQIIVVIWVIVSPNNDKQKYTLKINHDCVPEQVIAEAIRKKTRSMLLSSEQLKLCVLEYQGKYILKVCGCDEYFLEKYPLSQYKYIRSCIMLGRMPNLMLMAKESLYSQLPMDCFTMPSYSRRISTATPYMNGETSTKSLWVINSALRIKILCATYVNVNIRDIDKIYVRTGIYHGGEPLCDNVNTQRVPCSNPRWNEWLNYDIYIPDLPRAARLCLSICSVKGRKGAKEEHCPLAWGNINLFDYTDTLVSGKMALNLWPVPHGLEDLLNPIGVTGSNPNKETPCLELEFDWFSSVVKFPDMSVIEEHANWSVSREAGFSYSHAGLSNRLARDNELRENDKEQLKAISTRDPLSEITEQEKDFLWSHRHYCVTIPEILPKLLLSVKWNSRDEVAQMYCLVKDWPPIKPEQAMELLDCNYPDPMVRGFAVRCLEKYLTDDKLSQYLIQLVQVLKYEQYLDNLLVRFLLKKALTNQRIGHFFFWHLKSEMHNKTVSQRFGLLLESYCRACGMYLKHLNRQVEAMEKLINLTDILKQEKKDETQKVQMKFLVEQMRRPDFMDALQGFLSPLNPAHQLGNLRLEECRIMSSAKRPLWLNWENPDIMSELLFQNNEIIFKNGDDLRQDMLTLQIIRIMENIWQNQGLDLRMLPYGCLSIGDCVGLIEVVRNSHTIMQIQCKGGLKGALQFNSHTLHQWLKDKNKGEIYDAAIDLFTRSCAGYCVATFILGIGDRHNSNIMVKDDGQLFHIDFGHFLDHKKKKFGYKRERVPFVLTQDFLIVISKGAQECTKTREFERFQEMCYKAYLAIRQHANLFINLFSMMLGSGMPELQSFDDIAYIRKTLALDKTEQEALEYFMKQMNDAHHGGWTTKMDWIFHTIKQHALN
Chain of PI3K-α (P27986 whole entry partner, species assumed): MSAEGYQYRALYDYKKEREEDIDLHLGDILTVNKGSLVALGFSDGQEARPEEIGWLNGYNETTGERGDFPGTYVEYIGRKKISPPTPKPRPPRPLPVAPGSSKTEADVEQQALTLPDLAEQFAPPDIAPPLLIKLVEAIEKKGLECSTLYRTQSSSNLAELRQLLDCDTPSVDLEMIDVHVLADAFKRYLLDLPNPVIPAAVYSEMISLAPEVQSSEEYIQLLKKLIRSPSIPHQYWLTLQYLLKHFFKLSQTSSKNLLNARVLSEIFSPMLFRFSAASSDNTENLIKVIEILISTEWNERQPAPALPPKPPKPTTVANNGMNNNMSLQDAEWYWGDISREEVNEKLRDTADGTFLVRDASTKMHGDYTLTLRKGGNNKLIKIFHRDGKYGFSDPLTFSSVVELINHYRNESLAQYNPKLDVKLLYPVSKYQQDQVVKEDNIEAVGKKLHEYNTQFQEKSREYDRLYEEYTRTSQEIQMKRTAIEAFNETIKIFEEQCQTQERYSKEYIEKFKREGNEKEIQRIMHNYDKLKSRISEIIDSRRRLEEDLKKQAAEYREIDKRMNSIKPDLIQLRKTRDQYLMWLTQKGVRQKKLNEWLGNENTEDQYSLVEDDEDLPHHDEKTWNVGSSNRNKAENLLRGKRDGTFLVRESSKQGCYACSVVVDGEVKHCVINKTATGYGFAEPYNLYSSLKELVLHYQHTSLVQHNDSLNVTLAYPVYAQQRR

pIC50 (Human mTOR (FLAG-TOR)) | pIC50 ([2]; PC3-mm2 cells) | pIC50 [2] | pIC50 (PI3K-α) | pIC50 (PI3K-γ) | pIC50 [1, 3] | pIC50 (PI3K-α; listed as 478) | pIC50 (PI3K-γ; listed as 478) | pIC50 (PI3K-γ; listed as 510) | pIC50 (PI3K-γ; listed as 497) | pIC50 ([1]; 72 h, MDA-MB-361 cells) | SMILES | pIC50 ([1]; MDA-MB-361, 72 h) | pIC50 (PI3K-γ; listed as 749)
9.05 | 8.07 | 8.07 | 9.00 | 8.15 | > 8.51 | 8.96 | 8.22 | 8.20 | – | – | CN(C)C1CCN(C(=O)c2ccc(NC(=O)Nc3ccc(-c4nc(C5CCOCC5)nc(N5CCOCC5)n4)cc3)cc2)CC1 [Example 350, 1-(4-{[4-(dimethylamino)piperidin-1-yl]carbonyl}phenyl)-3-{4-[4-morpholin-4-yl-6-(tetrahydro-2H-pyran-4-yl)-1,3,5-triazin-2-yl]phenyl}urea] | – | –
8.38 and 8.34 | 7.18 | 7.18 | 8.52 | 7.80 | 7.30 | – | – | – | 7.72 | – | Nc1ccc(NC(=O)Nc2ccc(-c3nc(N4CCOCC4)nc(N4CCOCC4)n3)cc2)cc1 [Example 351, 1-(4-aminophenyl)-3-[4-(4,6-dimorpholin-4-yl-1,3,5-triazin-2-yl)phenyl]urea] | 7.30 | –
8.74 | 6.47 | – | 7.49 | 7.57 | – | – | – | – | – | 6.76 | CC(C)c1nc(-c2ccc(NC(=O)Nc3ccc(-c4cncnc4)cc3)cc2)nc(N2CCOCC2)n1 [Example 487, 1-{4-[4-(1-methylethyl)-6-morpholin-4-yl-1,3,5-triazin-2-yl]phenyl}-3-(4-pyrimidin-5-ylphenyl)urea] | – | –
8.96 | 7.46 | – | 8.46 | 7.77 | 8.10 | – | – | – | – | – | CC(C)c1nc(-c2ccc(NC(=O)Nc3ccc(C(=O)N4CCN(C(C)C)CC4)cc3)cc2)nc(N2CCOCC2)n1 [Example 491, 1-{4-[4-(1-methylethyl)-6-morpholin-4-yl-1,3,5-triazin-2-yl]phenyl}-3-(4-{[4-(1-methylethyl)piperazin-1-yl]carbonyl}phenyl)urea] | – | –
8.38 | 6.56 | – | 7.78 | 6.98 | – | – | – | – | – | 6.94 | CC(C)(C)OC(=O)N1CC(Oc2nc(-c3ccc(NC(=O)Nc4ccncc4)cc3)nc(N3CCOCC3)n2)C1 [Example 494, tert-butyl 3-[(4-morpholin-4-yl-6-{4-[(pyridin-4-ylcarbamoyl)amino]phenyl}-1,3,5-triazin-2-yl)oxy]azetidine-1-carboxylate] | – | –
8.63 | 7.78 | – | > 8.77 | 8.60 | 8.40 | – | – | – | – | – | CN1CCN(C(=O)Nc2ccc(NC(=O)Nc3ccc(-c4nc(N5CCOCC5)nc(N5CCOCC5)n4)cc3)cc2)CC1 [Example 498, N-[4-({[4-(4,6-dimorpholin-4-yl-1,3,5-triazin-2-yl)phenyl]carbamoyl}amino)phenyl]-4-methylpiperazine-1-carboxamide] | – | –
8.66 | 7.51 | – | > 8.72 | 8.35 | 7.68 | – | – | – | – | – | CN(C)C1CCN(C(=O)Nc2ccc(NC(=O)Nc3ccc(-c4nc(N5CCOCC5)nc(N5CCOCC5)n4)cc3)cc2)CC1 [Example 499, 4-(dimethylamino)-N-[4-({[4-(4,6-dimorpholin-4-yl-1,3,5-triazin-2-yl)phenyl]carbamoyl}amino)phenyl]piperidine-1-carboxamide] | – | –
9.16 | 7.39 | – | > 8.76 | 8.19 | – | – | – | – | – | > 7.51 | O=C(NCCN1CCCCC1)Nc1ccc(NC(=O)Nc2ccc(-c3nc(N4CCOCC4)nc(N4CCOCC4)n3)cc2)cc1 [Example 501, 1-[4-(4,6-dimorpholin-4-yl-1,3,5-triazin-2-yl)phenyl]-3-(4-{[(2-piperidin-1-ylethyl)carbamoyl]amino}phenyl)urea] | – | –
9.00 | 7.96 | – | 9.30 | 8.22 | – | – | – | – | – | 8.40 | CN1CCCN(C(=O)Nc2ccc(NC(=O)Nc3ccc(-c4nc(N5CCOCC5)nc(N5CCOCC5)n4)cc3)cc2)CC1 [Example 502, N-[4-({[4-(4,6-dimorpholin-4-yl-1,3,5-triazin-2-yl)phenyl]carbamoyl}amino)phenyl]-4-methyl-1,4-diazepane-1-carboxamide] | – | –
8.87 | 7.59 | – | 8.74 | 8.00 | 7.65 | – | – | – | – | – | CN(C)C(=O)Nc1ccc(NC(=O)Nc2ccc(-c3nc(N4CCOCC4)nc(N4CCOCC4)n3)cc2)cc1 [Example 504, 1-{4-[(dimethylcarbamoyl)amino]phenyl}-3-[4-(4,6-dimorpholin-4-yl-1,3,5-triazin-2-yl)phenyl]urea] | – | –
9.28 | 8.00 | – | 8.64 | 7.99 | 8.70 | – | – | – | – | – | CN1CCN(C(=O)c2ccc(NC(=O)Nc3ccc(-c4nc(C5CCOCC5)nc(N5CCOCC5)n4)cc3)cc2)CC1 [Example 511, 1-{4-[(4-methylpiperazin-1-yl)carbonyl]phenyl}-3-{4-[4-morpholin-4-yl-6-(tetrahydro-2H-pyran-4-yl)-1,3,5-triazin-2-yl]phenyl}urea] | – | –
9.92 | 8.10 | – | > 8.72 | 8.00 | – | – | – | – | – | 9.00 | CN(C)CCNC(=O)c1ccc(NC(=O)Nc2ccc(-c3nc(C4CCOCC4)nc(N4CCOCC4)n3)cc2)cc1 [Example 512, N-[2-(dimethylamino)ethyl]-4-[({4-[4-morpholin-4-yl-6-(tetrahydro-2H-pyran-4-yl)-1,3,5-triazin-2-yl]phenyl}carbamoyl)amino]benzamide] | – | –
9.92 | 7.89 | – | > 8.62 | 7.92 | – | – | – | – | – | 8.70 | O=C(Nc1ccc(C(=O)NCCN2CCCC2)cc1)Nc1ccc(-c2nc(C3CCOCC3)nc(N3CCOCC3)n2)cc1 [Example 513, 4-[({4-[4-morpholin-4-yl-6-(tetrahydro-2H-pyran-4-yl)-1,3,5-triazin-2-yl]phenyl}carbamoyl)amino]-N-(2-pyrrolidin-1-ylethyl)benzamide] | – | –
9.77 | 7.92 | – | 8.80 | 7.82 | – | – | – | – | – | > 8.49 | O=C(Nc1ccc(C(=O)NCCN2CCCCC2)cc1)Nc1ccc(-c2nc(C3CCOCC3)nc(N3CCOCC3)n2)cc1 [Example 514, 4-[({4-[4-morpholin-4-yl-6-(tetrahydro-2H-pyran-4-yl)-1,3,5-triazin-2-yl]phenyl}carbamoyl)amino]-N-(2-piperidin-1-ylethyl)benzamide] | – | –
8.81 | 7.92 | – | 9.40 | 8.12 | 8.52 | – | – | – | – | – | CC(C)N1CCN(C(=O)c2ccc(NC(=O)Nc3ccc(-c4nc(N5CCOCC5)nc(N5CCOCC5)n4)cc3)cc2)CC1 [Example 515, 1-[4-(4,6-dimorpholin-4-yl-1,3,5-triazin-2-yl)phenyl]-3-(4-{[4-(1-methylethyl)piperazin-1-yl]carbonyl}phenyl)urea] | – | –
8.97 | 7.96 | – | 8.85 | 8.12 | – | – | – | – | – | 8.52 | CC(C)N1CCN(C(=O)c2ccc(NC(=O)Nc3ccc(-c4nc(O[C@H]5CCOC5)nc(N5CCOCC5)n4)cc3)cc2)CC1 [Example 522, 1-(4-{[4-(1-methylethyl)piperazin-1-yl]carbonyl}phenyl)-3-(4-{4-morpholin-4-yl-6-[(3S)-tetrahydrofuran-3-yloxy]-1,3,5-triazin-2-yl}phenyl)urea] | – | –
7.27 | 7.13 | – | 8.68 | 7.95 | – | – | – | – | – | 7.49 | CCc1nc(-c2ccc(NC(=O)Nc3ccc(C(=O)N4CCN(c5ccccn5)CC4)cc3)cc2)nc(N2CCOCC2)n1 [Example 534, 1-[4-(4-ethyl-6-morpholin-4-yl-1,3,5-triazin-2-yl)phenyl]-3-{4-[(4-pyridin-2-ylpiperazin-1-yl)carbonyl]phenyl}urea] | – | –
11.07 | 6.79 | – | 8.96 | 7.80 | – | – | – | – | – | 8.05 | CN(C)CCN(C)C(=O)c1ccc(NC(=O)Nc2ccc(-c3nc(-c4ccccc4)nc(N4CCOCC4)n3)cc2)cc1 [Example 539, N-[2-(dimethylamino)ethyl]-N-methyl-4-({[4-(4-morpholin-4-yl-6-phenyl-1,3,5-triazin-2-yl)phenyl]carbamoyl}amino)benzamide] | – | –
11.47 | 6.51 | – | 7.27 | 6.92 | – | – | – | – | – | 6.78 | COC(=O)c1ccc(NC(=O)Nc2ccc(-c3nc(N4CCOC[C@@H]4C)nc(N4CCOC[C@@H]4C)n3)cc2)cc1 [Example 540, methyl 4-{[(4-{4,6-bis[(3S)-3-methylmorpholin-4-yl]-1,3,5-triazin-2-yl}phenyl)carbamoyl]amino}benzoate] | – | –

SMILES | pIC50 (Human mTOR (FLAG-TOR)) | pIC50 ([2]; PC3-mm2 cells) | pIC50 [2] | pIC50 (PI3K-α) | pIC50 (PI3K-γ) | pIC50 [1, 3] | pIC50 (PI3K-α; listed as 478) | pIC50 (PI3K-γ; listed as 478) | pIC50 (PI3K-γ; listed as 510) | pIC50 (PI3K-γ; listed as 497) | pIC50 ([1]; 72 h, MDA-MB-361 cells) | pIC50 ([1]; MDA-MB-361, 72 h) | pIC50 (PI3K-γ; listed as 749)
O=C(Nc1ccc(-c2nc(N3CCOCC3)nc(N3C4CCC3COC4)n2)cc1)Nc1ccc(Cl)nc1 [Example 349, 1-(6-chloropyridin-3-yl)-3-{4-[4-morpholin-4-yl-6-(3-oxa-8-azabicyclo[3.2.1]oct-8-yl)-1,3,5-triazin-2-yl]phenyl}urea] | 8.70 | 7.09 | 7.09 | 7.23 | 6.79 | – | – | – | – | – | – | 7.06 | 6.79
